Assay results published in PMC5735336, “Microwave-assisted synthesis and antitumor evaluation of a new series of thiazolylcoumarin derivatives” (EXCLI Journal, 2017).

Assays:
[1] = system: cervical (Hela) cancer cell line; assay: In vitro antitumor screening, MTT assay, Hela; format: cell-based; conditions: Homo sapiens, 50% inhibition of cell viability
Experimental: (§1) The new analogs were tested for in vitro antitumor efficacy adopting the reported procedure (Mosmann, 1983[46]; Denizot and Lang, 1986[13]; Gerlier and Thomasset, 1986[21]).
(§2) In vitro antitumor screening of compounds 5a-t was carried out on cervical (Hela) and kidney fibroblast (COS-7) cancer cell lines in accord to MTT assay (Mosmann, 1983[46]; Denizot and Lang, 1986[13]; Gerlier and Thomasset, 1986[21]) and utilizing doxorubicin as a standard drug. The concentrations of the compounds that cause 50% inhibition of cell viability (IC50, µM) were calculated. […]
In vitro antitumor screening
(§3) Compounds 5a-t were screened for in vitro antitumor activity against HepG2 (liver), HCT-116 (colon) and MCF-7 (breast) cancer cell lines adopting MTT assa y (Mosmann, 1983; Denizot and Lang, 1986; Gerlier and Thomasset, 1986) and usin g 5- fluorouracil as a reference antitumor agent. Cells were cultured in Roswell Park Memorial Institute (RPM I) 1640 medium wit h 10% fetal bovine serum, penicillin (100 units/mL) and streptomycin (100 µg/mL) at 37 ° C in an atmosphere of 5% CO 2 were added.
(§4) Cells were placed in 96-multiwell microtiter plates (10^4 cells/well), for 24 h rs at 37 °C and in an atmosphere of 5% CO2 before tr eatment with the compounds to allow attachment of the cells to the wall of the plate. The tested compounds were dissolved in DMSO and diluted with phosphate buffer saline (PBS) to obtain different concentrations. Tested compounds of dif-ferent concentrations were added to each well and cells were incubated with the compounds for 48 hrs at 37 °C and in an atmosphere of 5% CO2. All tests were performed in triplicates.
(§5) The treated cells were wash ed with PBS and 100 µL of 3 -(4,5-dimeth ylthiazol-2-yl )-2,5-diphe-n yltetrazolium bromide solution (MTT) (5 mg/m L MTT st ock in PBS diluted to 1 mg/ mL with 10% RPMI-1640 medium) was added. The 9 6 -multiwell plates were read b y microarra y read er Perkinelmer vector 3V multilabel counter model 1420 (Perkinelmer, Boston, MA) for optical densit y at 490 nm (Mosmann, 1983; Denizot and Lang, 1986; Gerlier and Thomasset, 1986).
(§6) The relative percenta ge cell viabilit y was calculate d from the following equation: […]
(§7) The relation between surviving fraction and drug concentration is plotted to get the survival curve for HepG2, HCT-116 and M CF-7 cancer cell lines . […]
(§8) Denizot F, Lang R. Rapid colorimetric assa y for cell growth and survival. Modifications to the tetrazolium dye procedure giving improved sensitivity an d reliability. J Immunol Methods. 1986;89:271-7.
(§9) Gerlier D, Thomasset T. Use of MTT colorimetric assa y to measure cell activation. J Immunol Methods. 1986; […]
(§10) Mosmann T. Rapid colorimetric assa y for cellular growth and survival: Application to proliferation and cytotox- […]
(§11) Oberling C, Gu erin M. The role of viruses in the production of cancer . Ad v Cancer Res. 1954;2:353-423.
(§12) Sheeja KR, Kuttan G, Kuttan R. C ytotox ic and antitumour activit y of Berberin. Amala Res Bull. 1997;17:73-6.

[2] = system: kidney fibroblast (COS-7) cancer cell line; assay: In vitro antitumor screening, MTT assay, COS-7; format: cell-based; conditions: Chlorocebus aethiops, 50% inhibition of cell viability, COS-7 cell line
Experimental: as §1, §2
In vitro antitumor screening […]
as §3, with “HCT-116” for “Compounds 5a-t were screened for in vitro antitumor activity against HepG2 (liver), HCT-116”
as §4, §5, §6, §7, §8, §9, §10, §11, §12

Row | SMILES | IC50 [1] | IC50 [2] | melting point
1 | O=c1oc2ccccc2cc1-c1csc(NN=Cc2ccc(C(F)(F)F)cc2)n1 [5d, 3-(2-(2-(4-(Trifluoromethyl)benzylidene)hydrazino)thiazol-4-yl)-2H-chromen-2-one] | > 50 µM | > 50 µM | 189 to 190 °C
2 | N#Cc1ccccc1C=NNc1nc(-c2cc3ccccc3oc2=O)cs1 [5b, 3-(2-(2-(2-Cyanobenzylidene)hydrazino)thiazol-4-yl)-2H-chromen-2-one] | > 50 µM | > 50 µM | 219 to 220 °C
3 | Cc1ccc(O)c(C=NNc2nc(-c3cc4ccccc4oc3=O)cs2)c1 [5j, 3-(2-(2-(2-Hydroxy-5-methylbenzylidene)hydrazino)thiazol-4-yl)-2H-chromen-2-one] | > 50 µM | > 50 µM | 206 to 207 °C
4 | COc1cccc2c1C(=O)c1c(O)c3c(c(O)c1C2=O)C[C@@](O)(C(=O)CO)C[C@@H]3O[C@H]1C[C@H](N)[C@H](O)[C@H](C)O1 [Doxorubicin, doxorubicin, reference compound] | 2.05 µM | 3.04 µM | –
5 | O=c1oc2ccccc2cc1-c1csc(NN=Cc2cc3ccccc3c3ccccc23)n1 [5s, 3-(2-(2-(Phenanthren-9-ylmethylidene)-hydrazino)thiazol-4-yl)-2H-chromen-2-one] | > 50 µM | > 50 µM | 245 to 247 °C
6 | O=c1ccc2cc(C=NNc3nc(-c4cc5ccccc5oc4=O)cs3)ccc2o1 [5q, 6-((2-(4-(2-Oxo-2H-chromen-3-yl)thiazol-2-yl)hydrazono)methyl)-2H-chromen-2-one] | > 50 µM | > 50 µM | 181 to 183 °C
7 | O=c1oc2ccccc2cc1-c1csc(NN=Cc2cc3ccc4cccc5ccc(c2)c3c45)n1 [5t, 3-(2-(2-(Pyren-2-ylmethylidene)hydrazino)thiazol-4-yl)-2H-chromen-2-one] | > 50 µM | > 50 µM | 237 to 239 °C
8 | O=c1oc2ccccc2cc1-c1csc(NN=Cc2ccccc2Br)n1 [5a, 3-(2-(2-(2-Bromobenzylidene)hydrazino)thiazol-4-yl)-2H-chromen-2-one] | > 50 µM | > 50 µM | 212 to 213 °C
9 | O=c1oc2ccccc2cc1-c1csc(NN=Cc2ccc(O)c(Br)c2)n1 [5i, 3-(2-(2-(3-Bromo-4-hydroxybenzylidene)hydrazino)thiazol-4-yl)-2H-chromen-2-one] | > 50 µM | > 50 µM | 182 to 184 °C
10 | O=c1oc2ccccc2cc1-c1csc(NN=Cc2ccc3ccccc3c2[N+](=O)[O-])n1 [5p, 3-(2-(2-((1-Nitronaphthalen-2-yl)methylidene)hydrazino)thiazol-4-yl)-2H-chromen-2-one] | > 50 µM | > 50 µM | 211 to 213 °C
11 | Cc1cc(C=NNc2nc(-c3cc4ccccc4oc3=O)cs2)ccc1O [5k, 3-(2-(2-(4-Hydroxy-3-methylbenzylidene)-hydrazino)thiazol-4-yl)-2H-chromen-2-one] | > 50 µM | > 50 µM | 193 to 194 °C
12 | O=c1oc2ccccc2cc1-c1csc(NN=Cc2c(F)cccc2Cl)n1 [5g, 3-(2-(2-(2-Chloro-6-fluorobenzylidene)hydrazino)thiazol-4-yl)-2H-chromen-2-one] | > 50 µM | > 50 µM | 195 to 196 °C
13 | Cc1cccc(C=NNc2nc(-c3cc4ccccc4oc3=O)cs2)c1 [5e, 3-(2-(2-(3-Methylbenzylidene)hydrazino)thiazol-4-yl)-2H-chromen-2-one] | > 50 µM | > 50 µM | 190 to 191 °C
14 | O=c1oc2ccccc2cc1-c1csc(NN=Cc2ccc(-c3ccccc3)cc2)n1 [5n, 3-(2-(2-((1,1'-Biphenyl)-4-ylmethylidene)-hydrazino)thiazol-4-yl)-2H-chromen-2-one] | > 50 µM | > 50 µM | 198 to 200 °C
15 | O=c1oc2ccccc2cc1-c1csc(NN=Cc2ccc3ccccc3c2)n1 [5o, 3-(2-(2-(Naphthalen-2-ylmethylidene)hydrazino)thiazol-4-yl)-2H-chromen-2-one] | > 50 µM | > 50 µM | 225 to 227 °C
16 | N#Cc1cccc(C=NNc2nc(-c3cc4ccccc4oc3=O)cs2)c1 [5c, 3-(2-(2-(3-Cyanobenzylidene)hydrazino)thiazol-4-yl)-2H-chromen-2-one] | > 50 µM | > 50 µM | 224 to 225 °C
17 | COc1ccc(C=NNc2nc(-c3cc4ccccc4oc3=O)cs2)c(OC)c1 [5l, 3-(2-(2-(2,4-Dimethoxybenzylidene)-hydrazino)thiazol-4-yl)-2H-chromen-2-one] | > 50 µM | > 50 µM | 219 to 220 °C
